Measured values from patent US8835632B2, “Methods to increase the photostability of dyes” (The University of North Carolina at Chapel Hill, priority 2007, dated 2014).

Tests used:
[1] = Absorption and fluorescence spectra, extinction coefficient, fluorescence quantum yield; format: physicochemical; details: for Suppression of extinction coefficient by introduction of the cyano-group: in methanol
Description: Absorption spectra were recorded on a Hewlett-Packard 8453 diode array UV-Vis spectrophotometer (Agilent Technologies, Inc., Santa Clara, Calif.), and fluorescence measurements were taken on a SPEX® Fluorolog 2 spectrofluorometer (HORIBA Jobin Yvon, Inc., Edison, N.J.). Melting points are not corrected. NMR spectra were obtained on a Varian Mercury 300 MHz (Varian, Inc., Palo Alto, Calif.) or on a Bruker 300 MHz DRX 300 spectrometer (Bruker Biospin Corp., Billerica, Mass.). Mass spectra were obtained on a Hewlett-Packard 1100 high-performance liquid chromatograph equipped with an 1100 mass selective detector (MS-ESI) (Agilent Technologies, Inc.).
With decreasing solvent polarity, the absorption maximum of dyes 1a-b, 2a-d shifted to longer wavelengths, and the intensity of the transition increased (Table 10, FIG. 11).
The SCRF/VSCRF predicted emission energies and the solute dipole moments before and after the vertical emission process are given in Table 16. The dipole moments of AI-BA(4) and AI-SO(4) are further decreased on the S1 surface after geometry relaxation (in MeOH solution), and then increased during the S1→S0 transition. This observation is consistent with the blue shifts of the emission bands of AI-BA(4) and AI-SO(4) with increasing solvent polarity from C6H6 to MeOH. By contrast, the dipole moment of I-SO further decreases after S1 state geometry relaxation, and then decreases during the vertical emission process. This observation also is in agreement with the red shift of the I-SO emission band with increasing solvent polarity from C6H6 to MeOH. Similarly to the absorption case, a negligible red shift (ΔEem=0.017 eV) was predicted for the emission band of I-TBA with increasing solvent polarity. A small red shift from C6H6 to DMF (with ΔEem=0.020 eV, or Δλmax=6 nm) is observed. The nearly equal emission energy observed in C6H6 and MeOH can again result in the explicit interactions between the solute and solvent molecules.

[2] = Relative rate of reaction with chemically generated singlet oxygen in DMSO; format: physicochemical; details: 2.5 mM, 1O2 from 1,4-dimethylnaphtalene-1,4-endoperoxide
Description: The bleaching rates for the dyes differed by two orders of magnitude. The relative rate constants kr (rel) for product formation during reaction with singlet oxygen were measured by comparing the percent conversions for dyes dissolved in DMSO containing a fixed amount of ^1O2 (2.5 mM solutions; ^1O2 generated by decomposition of 1,4-dimethylnaphtalene-1,4-endoperoxide). The rates were generally higher for dyes with a polar ground state (1a, 2a, 2b, 2d) than for the dyes with their ground state at the “cyanine limit” (3, 4). […] Olefins without allylic hydrogens react with singlet oxygen to form dioxetanes. Dioxetanes are unstable and decompose, to form two carbonyl compounds.

[3] = Photobleaching under constant illumination from a halogen tungsten lamp filtered through glass; format: physicochemical
Description: The photostability of dyes can be important for applications in living cells. The mechanism of photobleaching for merocyanines of varying structure has been examined See Toutchkine et al., J. Am. Chem. Soc. 125:4132-4145 (2003). The photostability of the presently disclosed dyes was characterized by exposing them to constant illumination from a halogen tungsten lamp filtered through glass. This broad spectrum light source provided essentially equal intensity throughout the spectral range where the dyes absorb and where they would be irradiated in vivo (about 600 nm to about 650 nm).

[4] = Methylene Blue-sensitized photobleaching (reactivity of the dyes with singlet oxygen); format: physicochemical; details: methanol, [dye]=[Methylene Blue]=3.33 μM, filtered light λ>630 nm, 40 min
Description: The reactivity of the dyes with singlet oxygen also was examined to confirm that the cyano substituent group affected photobleaching mediated by singlet oxygen. Singlet oxygen was generated using the photosensitizer Methylene Blue (MB), which has a high quantum yield for singlet oxygen production and allows singlet oxygen to be introduced into the system without excitation of the merocyanine dye. See Murov and Carmichael, Handbook of Photochemistry, 2nd ed.; Dekker: New York (1993).
15 mL of a methanol solution containing dye (3.33 μM) and Methylene Blue (3.33 μM) were placed in a 20-mL Borosilicate Glass Scintillation Vial (Fisher Scientific). The vial was illuminated with the light of a 90 W halogen reflector lamp (120 V, 1280 Lumens, 12 Degree Beam Spread). […] The length of the filtering solution was 1.0 cm. The distance between the vial and the lamp was 11.0 cm. A fan (120 V, 150 mm)) was used to cool the vial. At selected time intervals a sample was removed and the sample absorbance spectrum was obtained on a Hewlett-Packard 8453 diode array spectrophotometer (Agilent, Technologies, Inc.). Rate constants of dye photobleaching were obtained from a plot of ln(A) vs. time (see Table 5).
Again, without wishing to be bound to any one particular theory, the greater reactivity of S-SO vs. I-SO toward singlet oxygen can be attributed to the greater electron donating capacity of the benzothiazole moiety relative to the indolenine ring system.

[5] = from C6H6 to MeOH; cited from earlier work

Compound: CN1/C(=C/C=C/C=C2/C(=O)c3ccccc3S2(=O)=O)C(C)(C)c2ccccc21 [I-SO, (2Z)-2-[(2E,4E)-4-(1,3,3-trimethyl-1,3-dihydro-2H-indol-2-ylidene)but-2-en-1-ylidene]-1-benzothiophen-3(2H)-one 1,1-dioxide, reference compound]
- Absorbance λmax ([1]; Butanol (BuOH)): 587 nm
- Emission λmax ([1]; Butanol (BuOH)): 618 nm
- Extinction coefficient ε ([1]; Butanol (BuOH)): 134000
- Fluorescence quantum yield Φ ([1]; Butanol (BuOH)): 0.2
- Absorption energy Eabs Exp ([1]; C6H6): 2.172 eV
- Emission energy Eem Exp ([1]; C6H6): 2.056 eV
- Absorption energy Eabs Exp ([1]; MeOH): 2.116 eV
- Emission energy Eem Exp ([1]; MeOH): 2.016 eV
- Absorbance λmax ([1]; Methanol (MeOH)): 586 nm
- Emission λmax ([1]; Methanol (MeOH)): 615 nm
- Extinction coefficient ε ([1]; Methanol (MeOH)): 143000
- Fluorescence quantum yield Φ ([1]; Methanol (MeOH)): 0.03
- Observed absorption (ε) ([1]; Table 10, BuOH): (134000)
- Observed absorption λmax ([1]; Table 10, BuOH): 587 nm
- Observed absorption (ε) ([1]; Table 10, C6H6): (109000)
- Observed absorption λmax ([1]; Table 10, C6H6): 571 nm
- Observed absorption (ε) ([1]; Table 10, DMF): (143000)
- Observed absorption λmax ([1]; Table 10, DMF): 586 nm
- Observed absorption (ε) ([1]; Table 10, MeOH): (143000)
- Observed absorption λmax ([1]; Table 10, MeOH): 586 nm
- Observed absorption (ε) ([1]; Table 10, OcOH): (125000)
- Observed absorption λmax ([1]; Table 10, OcOH): 587 nm
- Absorption Exp wavelength ([1]; Table 12, C6H6): 571 nm
- Absorption Exp wavelength ([1]; Table 12, MeOH): 586 nm
- Observed emission (Φ) ([1]; Table 15, BuOH): 0.54
- Observed emission λmax ([1]; Table 15, BuOH): 618 nm
- Observed emission (Φ) ([1]; Table 15, C6H6): 0.42
- Observed emission λmax ([1]; Table 15, C6H6): 603 nm
- Observed emission (Φ) ([1]; Table 15, DMF): 0.97
- Observed emission λmax ([1]; Table 15, DMF): 615 nm
- Observed emission (Φ) ([1]; Table 15, MeOH): 0.08
- Observed emission λmax ([1]; Table 15, MeOH): 615 nm
- Observed emission (Φ) ([1]; Table 15, OcOH): 0.98
- Observed emission λmax ([1]; Table 15, OcOH): 617 nm
- Suppression of extinction coefficient by introduction of the cyano-group [1]: 62%
- kr(rel) (relative rate constants for product formation during reaction with singlet oxygen produced chemically) [2]: 5.24
- kph * 10^6 (absolute rate of photobleaching) ([3]; C6H6): 1.11 s^−1
- kph(rel) (relative rate of photobleaching) ([3]; C6H6, with respect to standard I-SO in C6H6): 1.00
- kph * 10^6 (absolute rate of photobleaching) ([3]; MeOH): 0.53 s^−1
- kph(rel) (relative rate of photobleaching) ([3]; MeOH, with respect to standard I-TBA in MeOH): 1.56
- Bleaching on irradiation of Methylene Blue [4]: 27%
- Absorption wavelength shift [5]: 15 nm
- Emission wavelength shift [5]: 12 nm

Compound: CN1/C(=C(C#N)/C=C/C=C2/C(=O)c3ccccc3S2(=O)=O)C(C)(C)c2ccccc21 [I-SO-CN, (2Z,3E,5Z)-5-(1,1-dioxido-3-oxo-1-benzothiophen-2(3H)-ylidene)-2-(1,3,3-trimethyl-1,3-dihydro-2H-indol-2-ylidene)pent-3-enenitrile]
- Absorbance λmax ([1]; Butanol (BuOH)): 527 nm
- Emission λmax ([1]; Butanol (BuOH)): 594 nm
- Extinction coefficient ε ([1]; Butanol (BuOH)): 56000
- Fluorescence quantum yield Φ ([1]; Butanol (BuOH)): 0.04
- Absorbance λmax ([1]; Methanol (MeOH)): 528 nm
- Emission λmax ([1]; Methanol (MeOH)): 595 nm
- Extinction coefficient ε ([1]; Methanol (MeOH)): 55000
- Fluorescence quantum yield Φ ([1]; Methanol (MeOH)): 0.03
- Bleaching on irradiation of Methylene Blue [4]: 0%

Compound: CCN1/C(=C/C=C/C=C2/C(=O)c3ccccc3S2(=O)=O)Sc2ccccc21 [S-SO, (2Z)-2-[(2E,4Z)-4-(3-ethyl-1,3-benzothiazol-2(3H)-ylidene)but-2-en-1-ylidene]-1-benzothiophen-3(2H)-one 1,1-dioxide, reference compound]
- Absorbance λmax ([1]; Butanol (BuOH)): 604 nm
- Emission λmax ([1]; Butanol (BuOH)): 622 nm
- Extinction coefficient ε ([1]; Butanol (BuOH)): 163000
- Fluorescence quantum yield Φ ([1]; Butanol (BuOH)): 0.12
- Absorbance λmax ([1]; Methanol (MeOH)): 598 nm
- Emission λmax ([1]; Methanol (MeOH)): 617 nm
- Extinction coefficient ε ([1]; Methanol (MeOH)): 143000
- Fluorescence quantum yield Φ ([1]; Methanol (MeOH)): 0.05
- Suppression of extinction coefficient by introduction of the cyano-group [1]: 34%
- Bleaching on irradiation of Methylene Blue [4]: 43%

Compound: CCN1/C(=C(C#N)/C=C/C=C2/C(=O)c3ccccc3S2(=O)=O)Sc2ccccc21 [S-SO-CN, (2E,3E,5Z)-5-(1,1-dioxido-3-oxo-1-benzothien-2(3H)-ylidene)-2-(3-ethyl-1,3-benzothiazol-2(3H)-ylidene)pent-3-enenitrile]
- Absorbance λmax ([1]; Butanol (BuOH)): 550 nm
- Emission λmax ([1]; Butanol (BuOH)): 599 nm
- Extinction coefficient ε ([1]; Butanol (BuOH)): 91000
- Fluorescence quantum yield Φ ([1]; Butanol (BuOH)): 0.16
- Absorbance λmax ([1]; Methanol (MeOH)): 547 nm
- Emission λmax ([1]; Methanol (MeOH)): 597 nm
- Extinction coefficient ε ([1]; Methanol (MeOH)): 95000
- Fluorescence quantum yield Φ ([1]; Methanol (MeOH)): 0.05
- Bleaching on irradiation of Methylene Blue [4]: no bleaching

Compound: CCN1C(=O)\C(=C/C=C/C=C2\Sc3ccccc3N2CC)C(O)N(CC)C1=S (stereo not shown) [S-TBA]
- Absorption wavelength shift [5]: 17 nm
- Emission wavelength shift [5]: 11 nm
